Measured values taken from ChEMBL document CHEMBL5344406, “1,2,3-Triazole-containing hybrids with potential antibacterial activity against ESKAPE pathogens” (2022).
In brackets after ≈: the same amount, converted by molar mass.

Columns and labels:
Assay type in all cases: functional
Staphylococcus aureus [1] = assay: Antibacterial activity against Staphylococcus aureus assessed as bacterial growth inhibition by CLSI based broth microdilution method
Pseudomonas aeruginosa = assay: Antibacterial activity against Pseudomonas aeruginosa assessed as bacterial growth inhibition by CLSI based broth microdilution method
Escherichia coli [2] = assay: Antibacterial activity against Escherichia coli assessed as bacterial growth inhibition by CLSI based broth microdilution method
Escherichia coli [3] = assay: Antibacterial activity against Escherichia coli ATCC 25922 assessed as bacterial growth inhibition by broth microdilution method
Staphylococcus aureus [4] = assay: Antibacterial activity against Staphylococcus aureus ATCC 25923 assessed as bacterial growth inhibition by broth microdilution method
Escherichia coli [5] = assay: Antibacterial activity against Escherichia coli assessed as bacterial growth inhibition
Staphylococcus aureus [6] = assay: Antibacterial activity against Staphylococcus aureus assessed as bacterial growth inhibition
Staphylococcus aureus [7] = assay: Antibacterial activity against Staphylococcus aureus ATCC 43300 assessed as bacterial growth inhibition incubated for 24 hrs by broth microdilution method
Staphylococcus aureus [8] = assay: Antibacterial activity against Staphylococcus aureus clinical isolate AD3 assessed as bacterial growth inhibition incubated for 24 hrs by broth microdilution method
Staphylococcus aureus [9] = assay: Antibacterial activity against Staphylococcus aureus clinical isolate 144 assessed as bacterial growth inhibition incubated for 24 hrs by broth microdilution method
Staphylococcus aureus [10] = assay: Antibacterial activity against Staphylococcus aureus ATCC 29213 assessed as bacterial growth inhibition incubated for 24 hrs by broth microdilution method
Staphylococcus aureus [11] = assay: Antibacterial activity against penicillin-resistant Staphylococcus aureus ATCC 31007 assessed as bacterial growth inhibition by standard dilution assay
Staphylococcus aureus [12] = assay: Antibacterial activity against methicillin-resistant Staphylococcus aureus ATCC 43300 assessed as bacterial growth inhibition by standard dilution assay
Staphylococcus aureus [13] = assay: Antibacterial activity against erythromycin-susceptible Staphylococcus aureus ATCC 25923 assessed as bacterial growth inhibition by standard dilution assay
Staphylococcus aureus [14] = assay: Antibacterial activity against multidrug-resistant Staphylococcus aureus clinical isolate assessed as bacterial growth inhibition by broth dilution method
[15] = tested on: Staphylococcus epidermidis; assay: Antibacterial activity against Staphylococcus epidermidis assessed as bacterial growth inhibition by serial dilution method
Staphylococcus aureus [16] = assay: Antibacterial activity against Staphylococcus aureus assessed as bacterial growth inhibition by broth dilution method
Bacillus subtilis = assay: Antibacterial activity against Bacillus subtilis assessed as bacterial growth inhibition by serial dilution method
Streptococcus pneumoniae [17] = assay: Antibacterial activity against erythromycin-resistant Streptococcus pneumoniae B1 expressing ermB assessed as bacterial growth inhibition incubated for 24 hrs by CLSI based broth microdilution method
Staphylococcus aureus [18] = assay: Antibacterial activity against methicillin-resistant Staphylococcus aureus ATCC 43300 assessed as bacterial growth inhibition incubated for 24 hrs by CLSI based broth microdilution method
Streptococcus pneumoniae [19] = assay: Antibacterial activity against erythromycin-resistant Streptococcus pneumoniae AB11 expressing ermB/mefA assessed as bacterial growth inhibition incubated for 24 hrs by CLSI based broth microdilution method
Streptococcus pyogenes = assay: Antibacterial activity against erythromycin-resistant Streptococcus pyogenes clinical isolate 2 assessed as bacterial growth inhibition incubated for 24 hrs by CLSI based broth microdilution method
Staphylococcus aureus [20] = assay: Antibacterial activity against penicillin-resistant Staphylococcus aureus ATCC 31007 assessed as bacterial growth inhibition incubated for 24 hrs by CLSI based broth microdilution method
Escherichia coli [21] = assay: Antibacterial activity against Escherichia coli clinical isolate assessed as bacterial growth inhibition incubated for 24 hrs by disk diffusion method
Staphylococcus aureus [22] = assay: Antibacterial activity against Staphylococcus aureus clinical isolate assessed as bacterial growth inhibition incubated for 24 hrs by disk diffusion method
Staphylococcus aureus [23] = assay: Antibacterial activity against Staphylococcus aureus ATCC 43300 assessed as bacterial growth inhibition incubated for 24 hrs by CLSI based broth dilution method
Staphylococcus aureus [24] = assay: Antibacterial activity against Staphylococcus aureus clinical isolate AD3 assessed as bacterial growth inhibition incubated for 24 hrs by CLSI based broth dilution method
Staphylococcus aureus [25] = assay: Antibacterial activity against Staphylococcus aureus ATCC 29213 assessed as bacterial growth inhibition incubated for 24 hrs by CLSI based broth dilution method
Staphylococcus aureus [26] = assay: Antibacterial activity against Staphylococcus aureus clinical isolate 144 assessed as bacterial growth inhibition incubated for 24 hrs by CLSI based broth dilution method
Escherichia coli [27] = assay: Antibacterial activity against Escherichia coli clinical isolate assessed as bacterial growth inhibition by disk diffusion method
Klebsiella pneumoniae [28] = assay: Antibacterial activity against Klebsiella pneumoniae clinical isolate assessed as bacterial growth inhibition by disk diffusion method
Pseudomonas putida = assay: Antibacterial activity against Pseudomonas putida clinical isolate assessed as bacterial growth inhibition by disk diffusion method
Staphylococcus aureus [29] = assay: Antibacterial activity against Staphylococcus aureus clinical isolate assessed as bacterial growth inhibition by disk diffusion method
Serratia marcescens = assay: Antibacterial activity against Serratia marcescens clinical isolate assessed as bacterial growth inhibition by disk diffusion method
Klebsiella pneumoniae [30] = assay: Antibacterial activity against erythromycin-resistant Klebsiella pneumoniae ATCC 700603 assessed as bacterial growth inhibition by standard dilution assay
Staphylococcus aureus [31] = assay: Potency index, ratio of Azithromycin MIC to test compound MIC for antibacterial activity against erythromycin-susceptible Staphylococcus aureus ATCC 25923 assessed as bacterial growth inhibition by standard dilution assay
Staphylococcus aureus [32] = assay: Antibacterial activity against erythromycin-resistant Staphylococcus aureus clinical isolate assessed as bacterial growth inhibition by standard dilution assay
Staphylococcus aureus [33] = assay: Potency index, ratio of Clarithromycin MIC to test compound MIC for antibacterial activity against erythromycin-susceptible Staphylococcus aureus ATCC 25923 assessed as bacterial growth inhibition by standard dilution assay

Compound: O=C(N/N=C/c1cn(-c2ccccc2)nc1-c1ccc([N+](=O)[O-])cc1)c1cccc(-n2cc(-c3ccccc3)nn2)c1
- MIC (Staphylococcus aureus [1]): 4 µg/mL (≈ 7.21 µM)
- MIC (Pseudomonas aeruginosa): 4 µg/mL (≈ 7.21 µM)
- MIC (Escherichia coli [2]): 4 µg/mL (≈ 7.21 µM)

Compound: Cc1ccc2c(c1)C=C(c1nnn(Cc3cn(Cc4ccccc4)nn3)n1)CO2
- MIC (Escherichia coli [3]): 6.5 µg/mL (≈ 16.9 µM)
- MIC (Staphylococcus aureus [4]): 6.5 µg/mL (≈ 16.9 µM)

Compound: Cn1c([N+](=O)[O-])cnc1COCc1cn(-c2ccnc3cc(Cl)ccc23)nn1
- MIC (Escherichia coli [5]): 1 µg/mL (≈ 2.5 µM)
- MIC (Staphylococcus aureus [6]): 1 µg/mL (≈ 2.5 µM)

Compound: C=C[C@]1(C)C[C@@H](OC(=O)Cn2cc(CN3CCN(c4ccccc4C)CC3)nn2)[C@@]2(C)[C@@H]3C(=O)CC[C@@]3(CC[C@@H]2C)[C@@H](C)[C@@H]1O
- MIC (Staphylococcus aureus [7]): 0.5 µg/mL (≈ 0.809 µM)
- MIC (Staphylococcus aureus [8]): 0.5 µg/mL (≈ 0.809 µM)
- MIC (Staphylococcus aureus [9]): 0.5 µg/mL (≈ 0.809 µM)
- MIC (Staphylococcus aureus [10]): 0.5 µg/mL (≈ 0.809 µM)

Compound: C=C[C@]1(C)C[C@@H](OC(=O)Cn2cc(CN3CCN(c4ccc([N+](=O)[O-])cc4)CC3)nn2)[C@@]2(C)[C@@H]3C(=O)CC[C@@]3(CC[C@@H]2C)[C@@H](C)[C@@H]1O
- MIC (Staphylococcus aureus [7]): 0.5 µg/mL (≈ 0.771 µM)
- MIC (Staphylococcus aureus [8]): 0.5 µg/mL (≈ 0.771 µM)
- MIC (Staphylococcus aureus [9]): 0.5 µg/mL (≈ 0.771 µM)
- MIC (Staphylococcus aureus [10]): 0.5 µg/mL (≈ 0.771 µM)

Compound: CC[C@H]1OC(=O)[C@H](C)[C@@H](O[C@H]2C[C@@](C)(OC)[C@@H](O)[C@H](C)O2)[C@H](C)[C@@H](O[C@@H]2O[C@H](C)C[C@H](N(C)C)[C@H]2O)[C@](C)(OC)C[C@@H](C)C(=O)[C@H](C)[C@@H](O)[C@]1(C)O [CLARITHROMYCIN]
- MIC (Staphylococcus aureus [11]): > 128 µg/mL
- MIC (Staphylococcus aureus [12]): > 128 µg/mL
- MIC (Staphylococcus aureus [13]): > 128 µg/mL

Compound: CCn1cc(C(=O)O)c(=O)c2cc(F)c(N3CCNCC3)cc21 [NORFLOXACIN]
- MIC (Staphylococcus aureus [14]): 7.5 µg/mL (≈ 23.5 µM)
- MIC [15]: 3.12 µg/mL (≈ 9.77 µM)
- MIC (Staphylococcus aureus [16]): 7.5 µg/mL (≈ 23.5 µM)
- MIC (Bacillus subtilis): 3.12 µg/mL (≈ 9.77 µM)

Compound: CCCCCc1ccc(-c2cn(CC(=O)NNC(=O)O[C@H]3[C@H](C)[C@@H](O[C@H]4O[C@@H](C)C[C@@H](N(C)C)[C@@H]4O)[C@](C)(O)C[C@@H](C)CN(C)[C@H](C)C4OC(=O)O[C@@]4(C)[C@@H](CC)OC(=O)[C@@H]3C)nn2)cc1 (stereo partly drawn)
- MIC (Streptococcus pneumoniae [17]): 4 µg/mL (≈ 4.3 µM)
- MIC (Staphylococcus aureus [18]): 4 µg/mL (≈ 4.3 µM)
- MIC (Streptococcus pneumoniae [19]): 4 µg/mL (≈ 4.3 µM)
- MIC (Streptococcus pyogenes): 4 µg/mL (≈ 4.3 µM)
- MIC (Staphylococcus aureus [20]): 4 µg/mL (≈ 4.3 µM)

Compound: Cc1ccc2c(c1)c(=O)c1ccccc1n2Cc1cn(-c2ccccc2C)nn1
- MIC (Escherichia coli [21]): 10.1 µg/mL (≈ 26.5 µM)
- MIC (Staphylococcus aureus [22]): 10.1 µg/mL (≈ 26.5 µM)

Compound: C=C[C@]1(C)C[C@@H](OC(=O)CN2CCN(C(=O)Cn3cc(CN4CCN(c5ccc(Cl)cc5)CC4)nn3)CC2)[C@@]2(C)[C@@H]3C(=O)CC[C@@]3(CC[C@@H]2C)[C@@H](C)[C@@H]1O
- MIC (Staphylococcus aureus [23]): 1 µg/mL (≈ 1.31 µM)
- MIC (Staphylococcus aureus [24]): 1 µg/mL (≈ 1.31 µM)
- MIC (Staphylococcus aureus [25]): 1 µg/mL (≈ 1.31 µM)
- MIC (Staphylococcus aureus [26]): 1 µg/mL (≈ 1.31 µM)

Compound: CCCCCc1ccc(-c2cn(CCCN3CCOC(=O)[C@H](C)[C@@H](O[C@H]4C[C@@](C)(OC)[C@@H](O)[C@H](C)O4)[C@H](C)[C@@H](O[C@H]4O[C@@H](C)C[C@@H](N(C)C)[C@@H]4O)[C@](C)(OC)C[C@@H](C)[C@H](O)[C@H](C)C3)nn2)cc1
- MIC (Streptococcus pneumoniae [17]): 4 µg/mL (≈ 4.23 µM)
- MIC (Staphylococcus aureus [18]): 4 µg/mL (≈ 4.23 µM)
- MIC (Streptococcus pneumoniae [19]): 4 µg/mL (≈ 4.23 µM)
- MIC (Streptococcus pyogenes): 4 µg/mL (≈ 4.23 µM)
- MIC (Staphylococcus aureus [20]): 4 µg/mL (≈ 4.23 µM)

Compound: Cc1ccc(NC(=O)Cn2cc(Cn3c4ccccc4c(=O)c4cc(C)ccc43)nn2)cc1
- MIC (Escherichia coli [27]): 12.3 µg/mL (≈ 28.1 µM)
- MIC (Klebsiella pneumoniae [28]): 12.3 µg/mL (≈ 28.1 µM)
- MIC (Pseudomonas putida): 12.3 µg/mL (≈ 28.1 µM)
- MIC (Staphylococcus aureus [29]): 12.3 µg/mL (≈ 28.1 µM)
- MIC (Serratia marcescens): 12.3 µg/mL (≈ 28.1 µM)

Compound: O=C(N/N=C/c1cn(-c2ccccc2)nc1-c1ccc(Cl)cc1)c1cccc(-n2cc(-c3ccccc3)nn2)c1
- MIC (Staphylococcus aureus [1]): 4 µg/mL (≈ 7.35 µM)
- MIC (Pseudomonas aeruginosa): 4 µg/mL (≈ 7.35 µM)
- MIC (Escherichia coli [2]): 4 µg/mL (≈ 7.35 µM)

Compound: CCCCc1ccc(-c2cn(CC(=O)NNC(=O)O[C@H]3C[C@H](C)[C@@H](O[C@@H]4[C@H](C)[C@@H](O[C@H]5O[C@@H](C)C[C@@H](N(C)C)[C@@H]5O)[C@@](C)(O)C[C@@H](C)CN(C)[C@H](C)[C@H]5OC(=O)O[C@]5(C)[C@H](CC)OC(=O)[C@@H]4C)C[C@@]3(C)OC)nn2)cc1
- MIC (Staphylococcus aureus [11]): 2 µg/mL (≈ 1.87 µM)
- MIC (Staphylococcus aureus [12]): 2 µg/mL (≈ 1.87 µM)
- MIC (Klebsiella pneumoniae [30]): ≥ 128 µg/mL
- Ratio (Staphylococcus aureus [31]): >32
- MIC (Staphylococcus aureus [32]): ≥ 128 µg/mL
- MIC (Staphylococcus aureus [13]): 2 µg/mL (≈ 1.87 µM)
- Ratio (Staphylococcus aureus [33]): >32
